Data taken from US10478421B1, “Sortilin binding compounds, formulations, and uses thereof” (University of Florida, priority 2016, dated 2019).

What was measured:
Format in all cases: cell-based, rat
PCSK9 = assay: Cellular PCSK9 by immunoblot in McA cells; conditions: 10 μM, 18 h, 1% BSA/DMEM
Experimental: McA cells were incubated in 1% BSA/DMEM with DMSO, 541 (10 μM) or 984 (10 μM) for 18 h. Cellular proteins were extracted and analyzed by IB for LDLR (LS-C146979, 1:2000) (FIG. 5A) or PCSK9 (Ab125251, 1:2000) (FIG. 5B) using HRP-linked secondary antibody and ECL detection. Loading controls included β-ACTIN (Rockland ph600-401-886) and GAPDH (cb1001mAb (6C5). Band intensities were measured using ChemiDocXRS+ system and evaluated using ImageLab 5.1 software (BioRad). Results are average of triplicates ±S.D. PCSK9 is a known ligand for sortilin where sortilin acts as a chaperone for PCSK9 secretion.

McA cells [1] = assay: VLDL-B100 secretion by McA cells (immuno slot blotting); conditions: for effect on VLDL-B100 secretion: increasing concentrations; for increase in VLDL-B100 secretion over the no cpd984 control: 18 h, 1% BSA/DMEM, insulin sensitive McA cells
Experimental: McArdle RH-7777 cells (McA cells) were cultured as previously described in serum containing complete Dulbecco's Modified Eagle's Medium (cDMEM). To induce insulin sensitivity, McA cells at 50-60% confluency were incubated for 18 h in serum-free media containing DMEM containing 1% (w/v) BSA (1% BSA/DMEM). Human sortilin (hsortilin) (Ser78-Asn755) with C-terminal 6-His tag was from R&D Systems, Inc., (Minneapolis, Minn.). Plasma from fasted Sprague Dawley rats (BioreclamationIVT, Westbury, N.Y.) was used to prepare VLDL apo B standards. Mouse monoclonal antibody to rat B100 was prepared in our laboratory and characterized previously. Rabbit anti-sortilin antibody was from GeneTex (GTX54854, Irvine, Calif.) or from Abcam (ab16640, Cambridge, Mass.). Rabbit anti-p-AKT (9271), rabbit anti-AKT (9272), and rabbit anti-insulin receptor β-subunit (IRβ, 3025) were from Cell Signaling Technology (Danvers, Mass.). Mouse anti-pY Platinum 4G10 was from EMD Millipore (Temecula, Calif.). (Horseradish peroxidase linked donkey anti-rabbit IgG (NA9340), sheep anti-mouse IgG (NXA931) and ECL Prime Western Blotting Detection Reagent (RPN2232) were from GE Healthcare (Buckinghamshire, UK). All other materials and reagents were essentially as described previously. Compound 98,477,898 (25)-1-methyl-N-{3-[(3-phenylpropanoyl)-amino]phenyl}pyrrolidine-2-carboxamide (cpd984) was obtained from ChemBridge Corp. (San Diego, Calif.). A stock solution of cpd984 (10 mM) was prepared in DMSO, and stored in aliquots at −20° C.
Experimental media were adjusted to 1% (v/v) protease inhibitor cocktail I (EMD Millipore) and to a salt density of 1.019 g/ml by addition of a solution of NaBr (d=1.495 g/ml). VLDL was isolated by ultracentrifugation in a L-70 Ultracentrifuge (Beckman Coulter, Inc., Fullterton, Calif.) using a 50Ti rotor (200,000×g, 18 h, 14° C.). Following centrifugation, the top 1.5-2.0 ml VLDL fraction was removed using a syringe and weighed to determine volume. VLDL samples were applied in triplicate wells (0.2-0.4 ml per well) in a Bio-Dot® SF apparatus (Bio-Rad). Two PVDF membranes were used together for blotting: the top was Immobilon-P (IPVH09120 SF) and the bottom was Immobilin-PSQ (ISEQ09120 SF); both were obtained from EMD Millipore. VLDL apo B standards were prepared from rat plasma VLDL and total apo B (B100 and B48) and B100 content were determined on stained gels following SDS-PAGE separation. VLDL-apo B standards in TBS were slotted in duplicate alongside test samples. After filtration, 0.4 ml of TBS was added as a wash. […] At this stage slot blots were evaluated similarly to immunoblotting. After chemiluminescence development and B100 quantitation, slot blots were stripped by incubation in Restore™ PLUS for 15 min at room temperature (Thermo Scientific, Rockford, Ill.) and were reblocked overnight at 4° C. Total apo B (B100 and B48) present in VLDL was then evaluated following incubation with rabbit polyclonal anti-rat apo B. The bottom PVDF membrane was carried through the entire procedure to assure there was no “bleed through” of test samples. VLDL-apo B and VLDL-B100 content were calculated from standard curves generated by VLDL apo B standards. […]
McArdle rat hepatocytes were incubated with increasing concentrations of cpd984 or cpd541 for 14-18 h and media were collected. […] Binding was detected by chemiluminescence detection and quantified using Bio-Rad software. […]

McA cells [2] = assay: LDH release into medium (viability of McA cells); conditions: incubation with compound (10 μM cpd984, 18 h)

| SMILES | effect on cellular PCSK9 (PCSK9) | effect on VLDL-B100 secretion (McA cells [1]; 14-18 h) | LDH release / toxicity (McA cells [2]) | increase in VLDL-B100 secretion over the no cpd984 control (McA cells [1]; 10 μM) [%] | increase in VLDL-B100 secretion over the no cpd984 control (McA cells [1]; 25 μM) [%] | effect of 984 on VLDL-B100 and VLDL-apoE secretion when given in combination with 541 (McA cells [1]; combination of both compounds, 0.1-25 μM, 14-18 h) | LDH release / toxicity (McA cells [2]; listed as 984) |
| --- | --- | --- | --- | --- | --- | --- | --- |
| CC(NC(=O)c1ccccc1NCC(=O)O)c1ccccc1 (stereo not shown) [cpd541] | no biological difference | decreases VLDL-B100 secretion | non-toxic |  |  |  |  |
| CN1CCC[C@H]1C(=O)Nc1cccc(NC(=O)CCc2ccccc2)c1 [cpd984, (2S)-1-methyl-N-{3-[(3-phenylpropanoyl)-amino]phenyl} pyrrolidine-2-carboxamide] | accumulation of cellular PCSK9 | increases VLDL-B100 secretion | no significant release of LDH | 30 | 61 | abrogated | non-toxic |
